Measured values published in article PMC9271048, “Probing strigolactone perception mechanisms with rationally designed small-molecule agonists stimulating germination of root parasitic weeds” (Nature Communications, 2022).
Where two headings read alike, the source gives them in different places.

Tests used:
ShHTL7 [1] = biological target: T1, ShHTL7 (Striga hermonthica, UniProt A0A0M3PNA2); assay: biochemical; assay type: binding
Procedure, shortened: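 Surface plasmon resonance was run at 25 °C on ShHTL7 immobilized by amine coupling, using phosphate-buffered saline with 0.05% P20 and 0.5% DMSO. Each injection had 1 min association and 1 min dissociation, with a 50 μM screen followed by concentration series. KD was derived by kinetic analysis or steady-state affinity.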

ShHTL7 [2] = biological target: T1, ShHTL7; assay: Competitive inhibition of ShHTL7 with Yoshimulactone Green (YLG) as substrate; assay type: biochemical
Procedure, shortened: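 YLG hydrolysis by ShHTL7 followed by fluorescence (ex 480/em 520 nm) every 1 min for 30 min; compounds and YLG from fresh DMSO stocks. After subtracting no-enzyme background, the linear 8-min increase was used; IC50 fitted from relative inhibition versus compound concentration.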

P. aegyptiaca seeds = assay: P. aegyptiaca seed germination assay; assay type: in vivo, Phelipanche aegyptiaca; parameters: P. aegyptiaca seed germination activity, source data average: unit of the concentration uncertain; details: Supplementary Fig. 9b
Procedure, shortened: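 P. aegyptiaca seeds, sterilized in 1% NaClO, preconditioned in the dark at 25 °C for 4 days on glass-fiber discs, then given test compound in water with 1‰ acetone. Incubated dark at 25 °C for a week; germination scored under ×20 magnification, three biological repeats; rac-GR24 positive control.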

[3] = test system: ShHTLs (10 HTL proteins in S. hermonthica); assay: YLG-based competition assay on HTL proteins of S. hermonthica; assay type: biochemical, Striga hermonthica; details: Supplementary Fig. 27
Source text: In P. aegyptiaca, 5 KAI2s have been proposed as the SL receptors for the regulation of seed germination. […] The high sequence similarity may explain the consistency of these compounds in inducing germination in both S. hermonthica and P. aegyptiaca.
The excitation and emission wavelengths of YLG are 480 and 520 nm, respectively. We used a fluorescence spectrophotometer (CARY Eclipse) to detect the fluorescence intensity change of YLG during the enzymatic hydrolysis assay process. All the testing compounds and YLG were dissolved in DMSO and prepared as stock solutions just before use. […] The changes of fluorescence at 520 nm of each well were recorded every 1 min for 30 min. Using the reaction mixture without adding enzyme and tested compounds as the background control. After subtracting the background hydrolysis, a linear fluorescence increase in 8 min was used for further inspection. The IC50 values were determined via fitting relative inhibition percentages with the varying concentrations of compounds in Microsoft Excel.
Supplementary Fig. 27. Binding of compounds 4a, (R)- and (S)-4a, and 4g-i to the HTL proteins in S. hermonthica and KAI2 protein homologs in P. aegyptiaca. In the competitive inhibitory activity assay, YLG (3 µM) was used as the fluorogenic substrate. Error bar indicates SD (n = 3 biologically independent experiments).
(1 picture or pasted object on this page, not shown here)

[4] = ShHTL7, YLG competition, Supplementary Fig. 27, read-out: IC50, replicate 1
[5] = ShHTL7, YLG competition, Supplementary Fig. 27, read-out: IC50, replicate 2
[6] = ShHTL7, YLG competition, Supplementary Fig. 27, read-out: IC50, replicate 3
[7] = wild-type ShHTL7, average of 3, source data of Fig. 2a,b, Supplementary Figs. 8a, 9a, 20b, read-out: IC50, competitive ShHTL7 inhibition (YLG), source data average
[8] = 0.1 (unit uncertain) as printed
[9] = ShHTL2, YLG competition, read-out: IC50, replicate 1
[10] = ShHTL2, YLG competition, read-out: IC50, replicate 2
[11] = ShHTL2, YLG competition, read-out: IC50, replicate 3
[12] = ShHTL2, average of 3 replicates, read-out: IC50, average
[13] = ShHTL3, YLG competition, read-out: IC50, replicate 1
[14] = ShHTL3, YLG competition, read-out: IC50, replicate 2
[15] = ShHTL3, YLG competition, read-out: IC50, replicate 3
[16] = ShHTL3, average of 3 replicates, read-out: IC50, average
[17] = ShHTL4, YLG competition, read-out: IC50, replicate 1
[18] = ShHTL4, YLG competition, read-out: IC50, replicate 2
[19] = ShHTL4, YLG competition, read-out: IC50, replicate 3
[20] = ShHTL4, average of 3 replicates, read-out: IC50, average
[21] = ShHTL5, YLG competition, read-out: IC50, replicate 1
[22] = ShHTL5, YLG competition, read-out: IC50, replicate 2
[23] = ShHTL5, YLG competition, read-out: IC50, replicate 3
[24] = ShHTL5, average of 3 replicates, read-out: IC50, average
[25] = ShHTL6, YLG competition, read-out: IC50, replicate 1
[26] = ShHTL6, YLG competition, read-out: IC50, replicate 2
[27] = ShHTL6, YLG competition, read-out: IC50, replicate 3
[28] = ShHTL6, average of 3 replicates, read-out: IC50, average
[29] = ShHTL8, YLG competition, read-out: IC50, replicate 1
[30] = ShHTL8, YLG competition, read-out: IC50, replicate 2
[31] = ShHTL8, YLG competition, read-out: IC50, replicate 3
[32] = ShHTL8, average of 3 replicates, read-out: IC50, average
[33] = ShHTL9, YLG competition, read-out: IC50, replicate 1
[34] = ShHTL9, YLG competition, read-out: IC50, replicate 2
[35] = ShHTL9, YLG competition, read-out: IC50, replicate 3
[36] = ShHTL9, average of 3 replicates, read-out: IC50, average
[37] = ShHTL10, YLG competition, read-out: IC50, replicate 1
[38] = ShHTL10, YLG competition, read-out: IC50, replicate 2
[39] = ShHTL10, YLG competition, read-out: IC50, replicate 3
[40] = ShHTL10, average of 3 replicates, read-out: IC50, average
[41] = ShHTL11, YLG competition, read-out: IC50, replicate 1
[42] = ShHTL11, YLG competition, read-out: IC50, replicate 2
[43] = ShHTL11, YLG competition, read-out: IC50, replicate 3
[44] = ShHTL11, average of 3 replicates, read-out: IC50, average

T1 sequence (A0A0M3PNA2 entry or part of it): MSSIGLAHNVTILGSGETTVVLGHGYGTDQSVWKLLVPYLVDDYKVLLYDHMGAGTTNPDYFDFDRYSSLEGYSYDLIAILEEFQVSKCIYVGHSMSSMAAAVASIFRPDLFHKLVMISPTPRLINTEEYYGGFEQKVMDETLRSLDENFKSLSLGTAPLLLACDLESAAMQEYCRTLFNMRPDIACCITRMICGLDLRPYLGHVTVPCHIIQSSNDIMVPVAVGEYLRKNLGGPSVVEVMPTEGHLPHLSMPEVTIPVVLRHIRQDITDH

## CC1=CC(OC(=O)N2CCN(C(=O)COc3ccc(Br)cc3C)CC2)CC1=O (stereo not shown) [4g]
ShHTL7 [1]
  Kd: 34.8 ± 3.9 µM
ShHTL7 [2]; [4]
  IC50: 3.08 µM
ShHTL7 [2]; [5]
  IC50: 1.61 µM
ShHTL7 [2]; [6]
  IC50: 1.97 µM
ShHTL7 [2]; [7]
  IC50: 2.22 µM
P. aegyptiaca seeds; [8]
  P. aegyptiaca seed germination activity, source data average: 11.4951%
P. aegyptiaca seeds; 1 (unit uncertain) as printed
  P. aegyptiaca seed germination activity, source data average: 63.9751%
P. aegyptiaca seeds; 10 (unit uncertain) as printed
  P. aegyptiaca seed germination activity, source data average: 69.9023%
[3]; [9]
  IC50: 65.2 µM
[3]; [10]
  IC50: 66 µM
[3]; [11]
  IC50: 64.5 µM
[3]; [12]
  IC50: 65.2 µM
[3]; [13]
  IC50: 40.5 µM
[3]; [14]
  IC50: 33.3 µM
[3]; [15]
  IC50: 28.5 µM
[3]; [16]
  IC50: 34.1 µM
[3]; [17]
  IC50: 19.2 µM
[3]; [18]
  IC50: 17.8 µM
[3]; [19]
  IC50: 16.1 µM
[3]; [20]
  IC50: 17.7 µM
[3]; [21]
  IC50: 40.1 µM
[3]; [22]
  IC50: 35.7 µM
[3]; [23]
  IC50: 41.8 µM
[3]; [24]
  IC50: 39.2 µM
[3]; [25]
  IC50: 53 µM
[3]; [26]
  IC50: 37.4 µM
[3]; [27]
  IC50: 61.5 µM
[3]; [28]
  IC50: 50.6 µM
[3]; [29]
  IC50: 61 µM
[3]; [30]
  IC50: 62 µM
[3]; [31]
  IC50: 51.8 µM
[3]; [32]
  IC50: 58.3 µM
[3]; [33]
  IC50: 31.2 µM
[3]; [34]
  IC50: 38.7 µM
[3]; [35]
  IC50: 46.2 µM
[3]; [36]
  IC50: 38.7 µM
[3]; [37]
  IC50: 49.6 µM
[3]; [38]
  IC50: 54.6 µM
[3]; [39]
  IC50: 55.2 µM
[3]; [40]
  IC50: 53.1 µM
[3]; [41]
  IC50: 55.9 µM
[3]; [42]
  IC50: 54.7 µM
[3]; [43]
  IC50: 58.2 µM
[3]; [44]
  IC50: 56.3 µM

## CC1=CC(OC(=O)N2CCN(C(=O)COc3ccc(Br)cc3C)CC2)N(C)C1=O (stereo not shown) [4h]
ShHTL7 [1]; Supplementary Table 7, binding affinities between ShHTL7 and agonists by SPR, read-out: KD/μM
  Kd: 12.1 ± 0.94 µM
ShHTL7 [2]; [4]
  IC50: 4.33 µM
ShHTL7 [2]; [5]
  IC50: 5.43 µM
ShHTL7 [2]; [6]
  IC50: 4.75 µM
ShHTL7 [2]; [7]
  IC50: 4.84 µM
P. aegyptiaca seeds; [8]
  P. aegyptiaca seed germination activity, source data average: 6.8801%
P. aegyptiaca seeds; 1 (unit uncertain) as printed
  P. aegyptiaca seed germination activity, source data average: 41.0534%
P. aegyptiaca seeds; 10 (unit uncertain) as printed
  P. aegyptiaca seed germination activity, source data average: 82.4464%
[3]; [9]
  IC50: 72.3 µM
[3]; [10]
  IC50: 78.3 µM
[3]; [11]
  IC50: 79.2 µM
[3]; [12]
  IC50: 76.6 µM
[3]; [13]
  IC50: > 100 µM
[3]; [14]
  IC50: > 100 µM
[3]; [15]
  IC50: > 100 µM
[3]; [16]
  IC50: > 100 µM
[3]; [17]
  IC50: 12.7 µM
[3]; [18]
  IC50: 14.6 µM
[3]; [19]
  IC50: 8.97 µM
[3]; [20]
  IC50: 12.1 µM
[3]; [21]
  IC50: 32.9 µM
[3]; [22]
  IC50: 39.4 µM
[3]; [23]
  IC50: 42.1 µM
[3]; [24]
  IC50: 38.1 µM
[3]; [25]
  IC50: > 100 µM
[3]; [26]
  IC50: > 100 µM
[3]; [27]
  IC50: > 100 µM
[3]; [28]
  IC50: > 100 µM
[3]; [29]
  IC50: 65.9 µM
[3]; [30]
  IC50: 81.2 µM
[3]; [31]
  IC50: 80.4 µM
[3]; [32]
  IC50: 75.8 µM
[3]; [33]
  IC50: > 100 µM
[3]; [34]
  IC50: > 100 µM
[3]; [35]
  IC50: > 100 µM
[3]; [36]
  IC50: > 100 µM
[3]; [37]
  IC50: 47.3 µM
[3]; [38]
  IC50: 41.8 µM
[3]; [39]
  IC50: 41.6 µM
[3]; [40]
  IC50: 43.6 µM
[3]; [41]
  IC50: > 100 µM
[3]; [42]
  IC50: > 100 µM
[3]; [43]
  IC50: > 100 µM
[3]; [44]
  IC50: > 100 µM
